Test results published in patent US8158628B2, “Sulfonylated 1,2,3,4-tetrahydropyrrolo[1,2-a]pyrazine compounds and their use as pharmaceuticals” (Gruenenthal GmbH, priority 2009, dated 2012).

Assays:
human B1R = molecular target: T1, human B1R (Homo sapiens, UniProt P46663); assay: FLIPR Ca2+ functional assay, B1R antagonism, human B1R in CHO K1 cells; assay type: cell-based; settings: test substance 10 μM; hB1R CHO K1 cells; agonist Lys-Des-Arg9 bradykinin at EC80; % of maximum achievable inhibition
T1 construct: expressed in transfected cells; host or cells: CHO K1 cells (Chinese hamster ovary), stably transfected
T1 sequence (P46663 1-353): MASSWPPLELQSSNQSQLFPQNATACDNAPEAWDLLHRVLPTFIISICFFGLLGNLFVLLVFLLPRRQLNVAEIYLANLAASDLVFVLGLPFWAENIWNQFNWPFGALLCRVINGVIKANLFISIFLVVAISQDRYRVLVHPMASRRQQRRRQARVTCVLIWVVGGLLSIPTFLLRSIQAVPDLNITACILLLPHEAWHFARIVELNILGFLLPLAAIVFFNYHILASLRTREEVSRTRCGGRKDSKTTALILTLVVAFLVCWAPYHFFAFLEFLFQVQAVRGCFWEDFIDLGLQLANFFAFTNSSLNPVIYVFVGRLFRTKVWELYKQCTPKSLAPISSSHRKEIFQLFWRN
Summary of the method: (§1)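 IC50 values come from varied compound concentrations applied 10-20 min before an EC80 agonist challenge, with Des-Arg9 bradykinin for rat and Lys-Des-Arg9 bradykinin for human receptor. Ca2+ influx in Fluo-4-loaded CHO K1 transfectants was measured by FLIPR peak fluorescence. Data are % inhibition vs maximum, n=2-3, N>=2.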

B1R of the rat = molecular target: T2, B1R of the rat (Rattus norvegicus, UniProt P97583); assay: FLIPR Ca2+ functional assay, B1R antagonism, rat B1R in CHO K1 cells; assay type: cell-based; settings: test substance 10 μM; rB1R CHO K1 cells; agonist Des-Arg9 bradykinin at EC80; % of maximum achievable inhibition
T2 construct: expressed in transfected cells; host or cells: CHO K1 cells (Chinese hamster ovary), stably transfected
T2 sequence (P97583 1-337): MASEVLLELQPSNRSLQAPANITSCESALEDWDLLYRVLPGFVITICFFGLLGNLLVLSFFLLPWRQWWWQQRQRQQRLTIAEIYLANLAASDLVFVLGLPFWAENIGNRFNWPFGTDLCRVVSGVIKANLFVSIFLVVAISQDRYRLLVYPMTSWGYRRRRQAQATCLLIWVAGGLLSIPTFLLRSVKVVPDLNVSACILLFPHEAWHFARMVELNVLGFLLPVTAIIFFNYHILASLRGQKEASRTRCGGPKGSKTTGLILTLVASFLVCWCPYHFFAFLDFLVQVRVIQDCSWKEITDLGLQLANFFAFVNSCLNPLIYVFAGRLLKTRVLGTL
Summary of the method: as §1

| SMILES | inhibition at 10 µM (human B1R) [%] | inhibition at 10 µM (B1R of the rat) [%] |
| --- | --- | --- |
| Cc1ccc(S(=O)(=O)N2CCn3cccc3C2CC(=O)NC2CCCc3cc(CN(C)C(C)(C)C)ccc32)cc1 (stereo not shown) [Example 74, N-[6-[(tert-Butyl-methyl-amino)-methyl]-1,2,3,4-tetrahydro-naphthalen-1-yl]-2-[2-(p-tolylsulfonyl)-1,2,3,4-tetrahydro-pyrrolo[1,2-a]pyrazin-1-yl]-acetamide] | 99.7 | 91.2 |
| Cc1ccc(S(=O)(=O)N2CCn3cccc3C2CC(=O)NC2CCc3cc(CN(C)C(C)(C)C)ccc3C2)cc1Cl (stereo not shown) [Example 75, N-[6-[(tert-Butyl-methyl-amino)-methyl]-1,2,3,4-tetrahydro-naphthalen-2-yl]-2-[2-[(3-chloro-4-methyl-phenyl)sulfonyl]-1,2,3,4-tetrahydro-pyrrolo[1,2-a]pyrazin-1-yl]-acetamide] | 99.9 | 102 |
| Cc1ccc(S(=O)(=O)N2CCn3cccc3C2CC(=O)NC2CCCc3cc(CN(C)C(C)(C)C)ccc32)cc1Cl (stereo not shown) [Example 76, N-[6-[(tert-Butyl-methyl-amino)-methyl]-1,2,3,4-tetrahydro-naphthalen-1-yl]-2-[2-[(3-chloro-4-methyl-phenyl)sulfonyl]-1,2,3,4-tetrahydro-pyrrolo[1,2-a]pyrazin-1-yl]-acetamide] | 99.8 | 101 |
| Cc1ccc(S(=O)(=O)N2CCn3cccc3C2CC(=O)NC2CCc3cc(CN4C5CCCC4CC5)ccc3C2)cc1 (stereo not shown) [Example 77, N-[6-(8-Azabicyclo[3.2.1]octan-8-yl-methyl)-1,2,3,4-tetrahydro-naphthalen-2-yl]-2-[2-(p-tolylsulfonyl)-1,2,3,4-tetrahydro-pyrrolo[1,2-a]pyrazin-1-yl]-acetamide] | 99.2 | 103 |
| Cc1ccc(S(=O)(=O)N2CCn3cccc3C2CC(=O)NC2CCCc3cc(CN4CCN(C)CC4)ccc32)cc1 (stereo not shown) [Example 78, N-[6-[(4-Methyl-piperazin-1-yl)-methyl]-1,2,3,4-tetrahydro-naphthalen-1-yl]-2-[2-(p-tolylsulfonyl)-1,2,3,4-tetrahydro-pyrrolo[1,2-a]pyrazin-1-yl]-acetamide] | 99.8 | 86.2 |
| Cc1ccc(S(=O)(=O)N2CCn3cccc3C2CC(=O)NC2CCc3cc(CN4CCCc5ccccc54)ccc3C2)cc1 (stereo not shown) [Example 79, 2-[2-(p-Tolylsulfonyl)-1,2,3,4-tetrahydro-pyrrolo[1,2-a]pyrazin-1-yl]-N-[6-(1,2,3,4-tetrahydro-quinolin-1-yl-methyl)-1,2,3,4-tetrahydro-naphthalen-2-yl]-acetamide] | 57.9 | 99.3 |
| Cc1ccc(S(=O)(=O)N2CCn3cccc3C2CC(=O)NC2CCCc3cc(CN4CCCCC4)ccc32)cc1 (stereo not shown) [Example 80, N-[6-(Piperidin-1-yl-methyl)-1,2,3,4-tetrahydro-naphthalen-1-yl]-2-[2-(p-tolylsulfonyl)-1,2,3,4-tetrahydro-pyrrolo[1,2-a]pyrazin-1-yl]-acetamide] | 99.8 | 101 |
| Cc1ccc(S(=O)(=O)N2CCn3cccc3C2CC(=O)NC2CCc3cc(CN4CCN(C)CC4)ccc3C2)cc1 (stereo not shown) [Example 81, N-[6-[(4-Methyl-piperazin-1-yl)-methyl]-1,2,3,4-tetrahydro-naphthalen-2-yl]-2-[2-(p-tolylsulfonyl)-1,2,3,4-tetrahydro-pyrrolo[1,2-a]pyrazin-1-yl]-acetamide] | 99.1 | 102 |
| CC(C)(C)NCc1ccc2c(c1)CCCC2NC(=O)CC1c2cccn2CCN1S(=O)(=O)c1cccc(C(F)(F)F)c1 (stereo not shown) [Example 82, N-[6-[(tert-Butylamino)-methyl]-1,2,3,4-tetrahydro-naphthalen-1-yl]-2-[2-[[3-(trifluoromethyl)phenyl]sulfonyl]-1,2,3,4-tetrahydro-pyrrolo[1,2-a]pyrazin-1-yl]-acetamide] | 99.9 | 101 |
| O=C(CC1c2cccn2CCN1S(=O)(=O)c1cccc(C(F)(F)F)c1)NC1CCc2cc(CNCc3ccccc3)ccc2C1 (stereo not shown) [Example 83, N-[6-[(Benzylamino)-methyl]-1,2,3,4-tetrahydro-naphthalen-2-yl]-2-[2-[[3-(trifluoromethyl)phenyl]sulfonyl]-1,2,3,4-tetrahydro-pyrrolo[1,2-a]pyrazin-1-yl]-acetamide] | 99.3 | 101 |
| O=C(CC1c2cccn2CCN1S(=O)(=O)c1cccc(C(F)(F)F)c1)NC1CCc2cc(CN3CCCC3)ccc2C1 (stereo not shown) [Example 84, N-[6-(Pyrrolidin-1-yl-methyl)-1,2,3,4-tetrahydro-naphthalen-2-yl]-2-[2-[[3-(trifluoromethyl)phenyl]sulfonyl]-1,2,3,4-tetrahydro-pyrrolo[1,2-a]pyrazin-1-yl]-acetamide] | 99.8 | 100 |
| Cc1ccc(S(=O)(=O)N2CCn3cccc3C2CC(=O)NC2CCCc3cc(CN4CCCC4)ccc32)cc1 (stereo not shown) [Example 85, 2-[2-(p-Tolylsulfonyl)-1,2,3,4-tetrahydro-pyrrolo[1,2-a]pyrazin-1-yl]-N-[6-(pyrrolidin-1-yl-methyl)-1,2,3,4-tetrahydro-naphthalen-1-yl]-acetamide] | 99.9 | 101 |
| O=C(CC1c2cccn2CCN1S(=O)(=O)c1cccc(C(F)(F)F)c1)NC1CCCc2cc(CN3CCCC3)ccc21 (stereo not shown) [Example 86, N-[6-(Pyrrolidin-1-yl-methyl)-1,2,3,4-tetrahydro-naphthalen-1-yl]-2-[2-[[3-(trifluoromethyl)phenyl]sulfonyl]-1,2,3,4-tetrahydro-pyrrolo[1,2-a]pyrazin-1-yl]-acetamide] | 99.8 | 97.5 |
| Cc1ccc(S(=O)(=O)N2CCn3cccc3C2CC(=O)NC2CCc3cc(CN4CCOCC4)ccc3C2)cc1 (stereo not shown) [Example 87, N-[6-(Morpholin-4-yl-methyl)-1,2,3,4-tetrahydro-naphthalen-2-yl]-2-[2-(p-tolylsulfonyl)-1,2,3,4-tetrahydro-pyrrolo[1,2-a]pyrazin-1-yl]-acetamide] | 99.4 | 102 |
| O=C(CC1c2cccn2CCN1S(=O)(=O)c1cccc(C(F)(F)F)c1)NC1CCc2cc(CN3C4CCCC3CC4)ccc2C1 (stereo not shown) [Example 88, N-[6-(8-Azabicyclo[3.2.1]octan-8-yl-methyl)-1,2,3,4-tetrahydro-naphthalen-2-yl]-2-[2-[[3-(trifluoromethyl)phenyl]sulfonyl]-1,2,3,4-tetrahydro-pyrrolo[1,2-a]pyrazin-1-yl]-acetamide] | 99.9 | 96.5 |
| O=C(CC1c2cccn2CCN1S(=O)(=O)c1cccc(C(F)(F)F)c1)NC1CCCc2cc(CN3CCCCC3)ccc21 (stereo not shown) [Example 89, N-[6-(Piperidin-1-yl-methyl)-1,2,3,4-tetrahydro-naphthalen-1-yl]-2-[2-[[3-(trifluoromethyl)phenyl]sulfonyl]-1,2,3,4-tetrahydro-pyrrolo[1,2-a]pyrazin-1-yl]-acetamide] | 100 | 99.1 |
| O=C(CC1c2cccn2CCN1S(=O)(=O)c1cccc(C(F)(F)F)c1)NC1CCCc2cc(CN3CCCc4ccccc43)ccc21 (stereo not shown) [Example 90, N-[6-(1,2,3,4-Tetrahydro-quinolin-1-yl-methyl)-1,2,3,4-tetrahydro-naphthalen-1-yl]-2-[2-[[3-(trifluoromethyl)phenyl]sulfonyl]-1,2,3,4-tetrahydro-pyrrolo[1,2-a]pyrazin-1-yl]-acetamide] | 54.6 | 51.4 |
| Cc1ccc(S(=O)(=O)N2CCn3cccc3C2CC(=O)NC2CCCc3cc(CN4CCCC4)ccc32)cc1Cl (stereo not shown) [Example 91, 2-[2-[(3-Chloro-4-methyl-phenyl)sulfonyl]-1,2,3,4-tetrahydro-pyrrolo[1,2-a]pyrazin-1-yl]-N-[6-(pyrrolidin-1-yl-methyl)-1,2,3,4-tetrahydro-naphthalen-1-yl]-acetamide] | 99.9 | 99 |
| CN(C)Cc1ccc2c(c1)CCC(NC(=O)CC1c3cccn3CCN1S(=O)(=O)c1cccc(C(F)(F)F)c1)C2 (stereo not shown) [Example 92, N-[6-(Dimethylaminomethyl)-1,2,3,4-tetrahydro-naphthalen-2-yl]-2-[2-[[3-(trifluoromethyl)phenyl]sulfonyl]-1,2,3,4-tetrahydro-pyrrolo[1,2-a]pyrazin-1-yl]-acetamide] | 99.9 | 102 |
| Cc1ccc(S(=O)(=O)N2CCn3cccc3C2CC(=O)NC2CCc3cc(CNCc4ccccc4)ccc3C2)cc1 (stereo not shown) [Example 93, N-[6-[(Benzylamino)-methyl]-1,2,3,4-tetrahydro-naphthalen-2-yl]-2-[2-(p-tolylsulfonyl)-1,2,3,4-tetrahydro-pyrrolo[1,2-a]pyrazin-1-yl]-acetamide] | 99.9 | 96.8 |
